Each substance was assayed on polyclonal antibody ab6982 (assay: Epitope mapping of polyclonal antibody ab6982 against cyclic peptides of Ad5 fiber and hexon (peptide array)). Conditions: cyclic peptides of fiber protein (clusters 1-7).
Assay type: binding, rabbits
From the text: Polyclonal antibody ab6982 (Abcam) was generated by immunizing rabbits with purified AdV. It reacts with all capsid proteins of Ad5 including hexon, fiber and penton. It was shown that the antibody neutralizes Ad5 infection in a bioassay at 1000 adenovirus 5 particles/ml, a 50% inactivation of the adenovirus can be achieved at a 1/25,000 dilution of the antibody. In order to identify epitopic regions that could contain peptides for ab6982 paratope binding, the antibody was mapped against the sequences of fiber (NCBI Reference Sequence: AP 000226.1) and hexon protein (GenBank: BAG48782.1). […] The binding signal of this antibody to the array yielded several peptides that were aligned and clustered against the sequence of the protein. The peptide clusters were named cluster1-7 (fiber protein) and clusters8-16 (hexon protein) according to their ranked order of cyclic peptide hits (i.e. cluster contains the strongest binders, cluster2 the second strongest etc.). Below are the aligments of the corresponding peptides that bind to polyclonal antibody ab6982.

| Substance | antibody binding signal ranking from the microarray experiment |
| --- | --- |
| 203 (INEIFATSSY) [compound 203] | 110 |
| 205 (YINEIFA) [compound 205] | 168 |
| 187 (VLLNNSFLDPEYW) [compound 187] | 088 |
| 193 (SSYTFSY) [compound 193] | 042 |
| 173 (SMSFSWD) [compound 173] | 144 |
| 185 (DPEYWNF) [compound 185] | 053 |
| 176 (SMSFSWDWSGHNY) [compound 176] | 176 |
| 202 (IFATSSY) [compound 202] | 104 |
| 198 (EIFATSSYTF) [compound 198] | 089 |
| 206 (YTFSYIA) [compound 206] | 181 |
| 174 (SWDWSGHNYI) [compound 174] | 149 |
| 188 (EYWNFRN) [compound 188] | 113 |
| 196 (SYTFSYI) [compound 196] | 064 |

Same assay, conditions: cyclic peptides of hexon protein (clusters 8-16)

| Substance | antibody binding signal ranking from the microarray experiment |
| --- | --- |
| 249 (EEDDDNE) [compound 249] | 108 |
| 246 (DDDNEDEVDE) [compound 246] | 087 |
| 233 (NEDEVDEQAEQQK) [compound 233] | 25 |
| 220 (EINLEEEDDD) [compound 220] | 15 |
| 231 (EDEVDEQAEQ) [compound 231] | 22 |
| 276 (DVDIETPDTH) [compound 276] | 054 |
| 305 (NYNIGYQGFY) [compound 305] | 106 |
| 268 (IETPDTH) [compound 268] | 045 |
| 286 (ETPDTHISYM) [compound 286] | 071 |
| 306 (ANYNIGYQGF) [compound 306] | 122 |
| 263 (EWDEAATALEINL) [compound 263] | 112 |
| 269 (VDIETPDTHI) [compound 269] | 046 |
| 251 (EDEVDEQ) [compound 251] | 126 |
| 257 (VDEQAEQQKT) [compound 257] | 036 |
| 212 (TALEINLEEEDDD) [compound 212] | 05 |
| 288 (DRMYSFFRNF) [compound 288] | 072 |
| 238 (LEEEDDDNED) [compound 238] | 034 |
| 241 (LEEEDDDNEDEVD) [compound 241] | 053 |
| 295 (YIPESYKDRMYSF) [compound 295] | 152 |
| 273 (SEDVDIETPDTHI) [compound 273] | 050 |
| 299 (GDRTRYF) [compound 299] | 080 |
| 290 (YSFFRNF) [compound 290] | 104 |

| Substance | antibody binding signal ranking from the microarray experiment |
| --- | --- |
| 237 (INLEEED) [compound 237] | 032 |
| 240 (DDDNEDEVDEQAE) [compound 240] | 037 |
| 258 (EVDEQAEQQKTHV) [compound 258] | 038 |
| 217 (DEAATALEINLEE) [compound 217] | 11 |
| 272 (VVLYSEDVDIETP) [compound 272] | 049 |
| 208 (ALEINLEEEDDDN) [compound 208] | 01 |
| 235 (EINLEEEDDDNED) [compound 235] | 028 |
| 283 (DIETPDT) [compound 283] | 062 |
| 228 (DNEDEVDEQA) [compound 228] | 18 |
| 247 (DDDNEDE) [compound 247] | 096 |
| 284 (DIETPDTHISYMP) [compound 284] | 064 |
| 260 (ALEINLE) [compound 260] | 033 |
| 287 (IETPDTHISYMP) [compound 287] | 159 |
| 308 (IGYQGFY) [compound 308] | 136 |
| 225 (EDDDNEDEVDEQA) [compound 225] | 12 |
| 275 (VLYSEDVDIETPD) [compound 275] | 052 |
| 281 (VDIETPDTHISYM) [compound 281] | 060 |
| 226 (DDNEDEVDEQAEQ) [compound 226] | 16 |
| 293 (ESYKDRMYSF) [compound 293] | 127 |
| 211 (LEINLEE) [compound 211] | 04 |
| 296 (PESYKDRMYSFFR) [compound 296] | 153 |

These substances were tested on IgG from human donors (anti-AAV antibodies) (assay: Screen for anti-AAV antibodies in human sera, 2452 linear 15-amino-acid AAV peptides on microarrays (Table 1)). Conditions: X = peptide belongs to the deduplicated aggregate of the top 50 peptide hits for each donor; linear 15-amino-acid AAV peptides, IgG binding by fluorescence.
Assay type: binding
Parameters: key to group I: X: the deduplicated aggregate of the respective top 10 peptide hits for each donor was compiled and designated as group I; key to group II: X: the deduplicated aggregate of the respective top 25 peptide hits for each donor was compiled and designated as group II; key to group III: X: the deduplicated aggregate of the respective top 50 peptide hits for each donor was compiled and designated as group III
Method in brief: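 Protein G-purified IgG from human donor blood incubated with microarrays of 2452 linear 15-mer peptides from 16 AAVs; binding read by fluorescence. Background-subtracted signals ranked per donor, with top 10, 25, 50 and 250 hits pooled and deduplicated into groups I-IV.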

| Substance | group III |
| --- | --- |
| 343 (TFEDVPFHSSYAHSQ; REGION 1..15: note = peptide derived from viral capsid protein) [compound 343] | X |
| 325 (DNNEGADGVGNSSGN; REGION 1..15: note = peptide derived from viral capsid protein) [compound 325] | X |
| 299 (SRTQSTGGTAGTQQL; REGION 1..15: note = peptide derived from viral capsid protein) [compound 299] | X |
| 320 (GPPPPKPAERHKDDS; REGION 1..15: note = peptide derived from viral capsid protein) [compound 320] | X |
| 296 (NTPVPADPPTTFNQA; REGION 1..15: note = peptide derived from viral capsid protein) [compound 296] | X |
| 337 (ADNNEGADGVGNSSG; REGION 1..15: note = peptide derived from viral capsid protein) [compound 337] | X |
| 293 (SQMLRTGNFEFSYFE; REGION 1..15: note = peptide derived from viral capsid protein) [compound 293] | X |
| 341 (TFSYTFEDVPFHSSY; REGION 1..15: note = peptide derived from viral capsid protein) [compound 341] | X |
| 348 (NHYFGYSTPWGYFDF; REGION 1..15: note = peptide derived from viral capsid protein) [compound 348] | X |
| 340 (FSYTFEDVPFHSSYA; REGION 1..15: note = peptide derived from viral capsid protein) [compound 340] | X |

Same assay, conditions: X = peptide in the deduplicated aggregate of the top 50 peptide hits for each donor (top 17.5% of all peptides screened); linear 15-amino-acid AAV peptides on microarrays, human donor IgG, fluorescence

| Substance | group III |
| --- | --- |
| 424 (ENSKRWNPEIQYTSN; REGION 1..15: note = peptide derived from viral capsid protein) [compound 424] | X |
| 466 (ELKKENSKRWNPEIQ; REGION 1..15: note = peptide derived from viral capsid protein) [compound 466] | X |
| 416 (LNSFITQYSTGQVSV; REGION 1..15: note = peptide derived from viral capsid protein) [compound 416] | X |

Same assay, conditions: membership in deduplicated aggregate of top 10 peptide hits for each donor; human donor IgG binding to linear 15-amino-acid AAV peptides on microarray, fluorescence

| Substance | group I |
| --- | --- |
| KNTPVPADPPTTES [SEQ ID NO: 1930] | X |
| ADPPTTFSQAKLAS [SEQ ID NO: 1939] | X |
| DAAALEHDKAYDQQ [SEQ ID NO: 1940] | X |
| PRDWQRLINNNWGF (REGION 1..14: note = peptide derived from viral capsid protein) [SEQ ID NO: 1960] | X |
| EEEIKTTNPVATEE (REGION 1..14: note = peptide derived from viral capsid protein) [SEQ ID NO: 1935] | X |

Same assay, conditions: membership in deduplicated aggregate of top 25 peptide hits for each donor; human donor IgG binding to linear 15-amino-acid AAV peptides on microarray, fluorescence

| Substance | group II |
| --- | --- |
| KNTPVPADPPTTES [SEQ ID NO: 1930] | X |
| ADPPTTFSQAKLAS [SEQ ID NO: 1939] | X |
| DAAALEHDKAYDQQ [SEQ ID NO: 1940] | X |
| PRDWQRLINNNWGF (REGION 1..14: note = peptide derived from viral capsid protein) [SEQ ID NO: 1960] | X |
| EEEIKTTNPVATEE (REGION 1..14: note = peptide derived from viral capsid protein) [SEQ ID NO: 1935] | X |

Same assay, conditions: membership in deduplicated aggregate of top 50 peptide hits for each donor; human donor IgG binding to linear 15-amino-acid AAV peptides on microarray, fluorescence

| Substance | group III |
| --- | --- |
| KNTPVPADPPTTES [SEQ ID NO: 1930] | X |
| ADPPTTFSQAKLAS [SEQ ID NO: 1939] | X |
| DAAALEHDKAYDQQ [SEQ ID NO: 1940] | X |
| PRDWQRLINNNWGF (REGION 1..14: note = peptide derived from viral capsid protein) [SEQ ID NO: 1960] | X |
| EEEIKTTNPVATEE (REGION 1..14: note = peptide derived from viral capsid protein) [SEQ ID NO: 1935] | X |

Reference: patent publication US20250213707A1, “COMPOUND FOR INCREASING EFFICACY OF ONCOLYTIC VIRUSES” (ABLEVIA BIOTECH GMBH, priority 2022, published 2025)
